Measurements as given in publication PMC8939909 (Journal of medicinal chemistry, 2021).

How the values were obtained:
human LMPTP-A [1] = molecular target: T1, human LMPTP-A (Homo sapiens, UniProt P24666)
T1 sequence (P24666 1-158): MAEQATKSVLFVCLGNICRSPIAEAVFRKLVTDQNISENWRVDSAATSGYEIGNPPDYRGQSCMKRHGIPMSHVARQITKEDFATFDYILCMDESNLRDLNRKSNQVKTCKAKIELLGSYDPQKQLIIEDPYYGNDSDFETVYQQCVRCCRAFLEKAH

Mouse pharmacokinetics = details: in vivo, iv, 2 mg/kg
human LMPTP-A [2] = molecular target: T1, human LMPTP-A; test: LMPTP biochemical inhibition assay; details: for LMPTP potency, in words (Table 3 series): substitution of the benzyl substituent off the 3-position
HepG2 hepatocytes = test: Insulin-stimulated AKT Thr308 phosphorylation in HepG2 hepatocytes; assay type: cell-based, human; details: 500 nM overnight, 10 nM insulin 5 min
diabetic DIO mice = test: DIO diabetes model; assay type: in vivo, mouse; details: 2 weeks
VHR = details: HTS workflow; cited from earlier work
LYP = details: HTS workflow; cited from earlier work
[3] = system: panel of PTPs (class I tyrosine-specific and dual-specific PTPs); details: 40 μM compound; no other PTP tested
[4] = 0.03% in HFD chow, 10 min after IP insulin

SMILES: Cc1ccccc1-c1nc2c(N)ncn(Cc3c(Cl)cccc3Cl)c-2n1 [5d]
- mechanism of LMPTP inhibition (human LMPTP-A [1]): uncompetitive
- potency at varying substrate concentrations (human LMPTP-A [1]; 20 nM human LMPTP-A, increasing OMFP): enhanced potency in the presence of increasing substrate
- clearance at 24 h (Mouse pharmacokinetics): 4.14 L/h/kg

SMILES: Nc1ncn(Cc2ccccc2)c2ncnc1-2 [6a]
- LMPTP potency, in words (Table 3 series) (human LMPTP-A [2]): decreased potency

SMILES: Nc1ncn(Cc2ccccc2Cl)c2ncnc1-2 [6b]
- LMPTP potency, in words (Table 3 series) (human LMPTP-A [2]): decreased potency

SMILES: Nc1ncn(Cc2ccc(Cl)cc2Cl)c2ncnc1-2 [6c]
- LMPTP potency, in words (Table 3 series) (human LMPTP-A [2]): decreased potency

SMILES: Nc1ncn(Cc2cccc(Cl)c2)c2ncnc1-2 [6d]
- LMPTP potency, in words (Table 3 series) (human LMPTP-A [2]): decreased potency

SMILES: Nc1ncn(Cc2ccc(Cl)cc2)c2ncnc1-2 [6e]
- LMPTP potency, in words (Table 3 series) (human LMPTP-A [2]): decreased potency

SMILES: Cc1cccc(C)c1Cn1cnc(N)c2ncnc1-2 [6f]
- fold loss in potency (LMPTP) (human LMPTP-A [2]; benzyl substituent off the 3-position, compared with 2,6-bisubstitution): 10 fold

SMILES: Nc1ncn(Cc2c(Cl)cncc2Cl)c2ncnc1-2 [6g]
- HepG2 AKT Thr308 phosphorylation after insulin stimulation (HepG2 hepatocytes): substantially increased
- mechanism of LMPTP inhibition (human LMPTP-A [1]): uncompetitive
- clearance at 24 h (Mouse pharmacokinetics): 1.08 L/h/kg
- glucose tolerance (IPGTT) (diabetic DIO mice; 0.03% in HFD chow (roughly 30 mg/kg/day)): significantly improved
- fasting insulin levels (diabetic DIO mice; 0.03% in HFD chow): decreased
- insulin-stimulated phosphorylation of the IR activation motif in liver (diabetic DIO mice; [4]): increased
- phosphorylation of AKT Thr308 in liver (diabetic DIO mice; [4]): increased

SMILES: Cc1ccccc1-c1nc2c(N)ncn(Cc3c(Cl)cncc3Cl)c-2n1 [6h]
- clearance at 24 h (Mouse pharmacokinetics): 6.18 L/h/kg
- LMPTP potency, in words (Table 3 series) (human LMPTP-A [2]): additional boost in potency

SMILES: Clc1cccc(Cl)c1Cn1cnc(=NCc2ccco2)c2[nH]cnc21 [compound 2]
- selectivity for LMPTP over VHR (VHR): high selectivity
- selectivity for LMPTP over LYP (LYP): high selectivity

SMILES: Nc1ncn(Cc2c(Cl)cccc2Cl)c2ncnc1-2 [compound 3]
- clearance at 24 h (Mouse pharmacokinetics): 0.348 L/h/kg
- inhibition of other PTPs of the panel [3]: < 50%
- fold more potent than 2 (LMPTP) (human LMPTP-A [2]; compared with 2): > 10 fold
